Patent publication US10301288B2, “Kinase inhibitors” (Topivert Pharma Limited, priority 2013, dated 2019)

Columns and labels:
CYP3A4 = CYP3A4 (Homo sapiens (Human), UniProt P08684); assay: CYP450 time-dependent inhibition, CYP3A4; format: in vitro ADME
Method: CYP450 time-dependent inhibition (TDI) assays were performed with test compound at six test concentrations, 0.062 μM to 15 μM (n=2). The test compounds was pre-incubated for 30 minutes with pooled human hepatic microsomes in 0.1 M Tris buffer, pH 7.4, at 37° C. in the presence of cofactor NADPH. A parallel series of incubations (n=2) were prepared with no pre-incubation. Probe substrates were then added (with additional cofactor) and further incubated for the times specified. Concentrations of probe substrates used in the incubations have been optimised to maintain first order reaction conditions.
Reactions were terminated with acetonitrile containing analytical internal standard (carbamazepine), samples then centrifuged to remove microsomal protein and analysed using optimised LC/MS-MS conditions. The MS data were normalised to internal standard and compared to the appropriate solvent controls to determine the amount of metabolite formed from the probe substrate relative to the “uninhibited” controls. The results are quoted as % inhibition.
Variation in probe turnover between plate wells means that inhibition values recorded below 10-15% may not be significant.

[1] = Hepatic microsomal stability, dog; format: in vitro ADME; conditions: pooled liver microsomes, read-out: Mean intrinsic clearance
Method: • Microsomal stability assays were performed with incubations of test compounds at 0.1 μM (n=2, final DMSO concentration 0.25%), and carried out using pooled human, […], rat and Cynomolgus macaque hepatic microsomes from Xenotech (Lots 1210153, 0810143 and 1110042, respectively) at 0.25 mg protein/mL in the presence of cofactor, NADPH. The incubations were performed at 37° C. with 100 μL aliquots taken from the incubation, at 0, 2, 5, 10 and 20 minutes (and, in the case of Cynomolgus macaque hepatic microsomes, 40 minutes) and reactions terminated by addition of 100 μL of acetonitrile containing carbamazepine as analytical internal standard. […] Half-life values were calculated from the relationship T1/2 (min)=−0.693/λ • where λ was the slope of the Ln concentration vs time curve. • The in vitro intrinsic clearance, Clint (mL/min/kg), was calculated and scaled to hepatic extraction ratios using the following scaling parameters and formulae.
Formulae Clint(tissue clearance) mL/min/kg=[0.693/t½ (min)]×[1/microsomal protein concentration mg/mL]×[mg microsomes/g liver]×[g liver/kg body weight] […] Half-life values were calculated from the relationship T1/2 (min)=−0.693/λ • where λ was the slope of the Ln concentration vs time curve. • Standard compounds testosterone, midazolam and 4-methylumbelliferone are included in the assay design.

[2] = Hydrolytic stability study in DMSO and water (3:1); format: physicochemical; conditions: 1 mg/mL
Method: General HPLC Procedure • Agilent, Waters X-Select C18, 2.5 μm, 4.6×30 mm column, 4 min method, 5-95% MeCN/water (0.1% formic acid). • Flow rate 2.5 ml/min • Column Oven Temperature 40° C. • Detection 254 nm.
Sample Preparation • A 1.0 mg sample of test compound was dissolved in 750 μL of DMSO. Water (250 μL) was added slowly, ensuring no precipitation occurred.
Recording Stability • A 50 μL aliquot of the test solution was removed and analysed in duplicate by 5 μL HPLC injections. The peak area for the test compound was recorded following manual integration of the corresponding UV trace. • The test solution was heated to 60° C., with stirring, and 50 μL aliquots removed for HPLC analysis at 5 and 24 h timepoints.

β-catenin = assay: (m) Accumulation of β catenin in d-U937 cells; format: cell-based, human; conditions: Reference Compound at 1 μg/mL defined as 100%
How it was run: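 Read-out: colourimetric cell-based immunoassay for endogenous β-catenin (OD450 minus 655 reference), normalised to crystal violet absorbance at 595 nm. Test compound or vehicle was applied for 18 hr to U937 monocytes first differentiated with PMA (100 ng/mL) for 48–72 hr.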

B-Raf (V600e) = B-Raf (V600e) (Homo sapiens (Human), UniProt P15056, V600E); assay: KINOMEscan enzyme binding assay, B-Raf (V600e)
Method: Kinase enzyme binding activities of compounds disclosed herein may be determined using a proprietary assay which measures active site-directed competition binding to an immobilized ligand (Fabian, M. A. et al., Nature Biotechnol., 2005, 23:329-336). These assays may be conducted by DiscoverX (formerly Ambit; San Diego, Calif.). The percentage inhibition produced by incubation with a test compound may be calculated relative to the non-inhibited control.

PBMCs = assay: (i) Cell mitosis assay in PBMCs; format: cell-based; conditions: Homo sapiens, PBMC, 5 μg/mL
Method: PBMCs from healthy subjects are separated from whole blood (Quintiles, London, UK) using a density gradient (Histopaque®-1077, Sigma-Aldrich, Poole, UK). The PBMCs (3 million cells per sample) are subsequently treated with 2% PHA (Sigma-Aldrich, Poole, UK) for 48 hr, followed by a 20 hr exposure to varying concentrations of test compounds. At 2 hr before collection, PBMCs are treated with demecolcine (0.1 μg/mL; Invitrogen, Paisley, UK) to arrest cells in metaphase. […] Fluorescence is observed using an ATTUNE flow cytometer (Invitrogen, Paisley, UK), gating for lymphocytes.

Sequence of CYP3A4 (P08684 whole entry): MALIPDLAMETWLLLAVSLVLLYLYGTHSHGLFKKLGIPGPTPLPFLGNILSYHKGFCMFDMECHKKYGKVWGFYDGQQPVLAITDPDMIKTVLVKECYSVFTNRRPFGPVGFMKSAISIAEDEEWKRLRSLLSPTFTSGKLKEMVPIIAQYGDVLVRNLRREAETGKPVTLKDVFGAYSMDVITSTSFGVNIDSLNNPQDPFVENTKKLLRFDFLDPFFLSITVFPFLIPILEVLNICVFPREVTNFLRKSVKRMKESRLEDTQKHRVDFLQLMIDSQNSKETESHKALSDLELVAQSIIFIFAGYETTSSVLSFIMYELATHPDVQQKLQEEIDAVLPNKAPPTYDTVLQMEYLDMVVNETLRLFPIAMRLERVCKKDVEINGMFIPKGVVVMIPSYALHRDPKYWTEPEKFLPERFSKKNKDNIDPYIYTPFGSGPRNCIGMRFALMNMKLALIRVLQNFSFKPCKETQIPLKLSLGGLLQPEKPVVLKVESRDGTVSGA
Sequence of B-Raf (V600e) (P15056 whole entry V600E): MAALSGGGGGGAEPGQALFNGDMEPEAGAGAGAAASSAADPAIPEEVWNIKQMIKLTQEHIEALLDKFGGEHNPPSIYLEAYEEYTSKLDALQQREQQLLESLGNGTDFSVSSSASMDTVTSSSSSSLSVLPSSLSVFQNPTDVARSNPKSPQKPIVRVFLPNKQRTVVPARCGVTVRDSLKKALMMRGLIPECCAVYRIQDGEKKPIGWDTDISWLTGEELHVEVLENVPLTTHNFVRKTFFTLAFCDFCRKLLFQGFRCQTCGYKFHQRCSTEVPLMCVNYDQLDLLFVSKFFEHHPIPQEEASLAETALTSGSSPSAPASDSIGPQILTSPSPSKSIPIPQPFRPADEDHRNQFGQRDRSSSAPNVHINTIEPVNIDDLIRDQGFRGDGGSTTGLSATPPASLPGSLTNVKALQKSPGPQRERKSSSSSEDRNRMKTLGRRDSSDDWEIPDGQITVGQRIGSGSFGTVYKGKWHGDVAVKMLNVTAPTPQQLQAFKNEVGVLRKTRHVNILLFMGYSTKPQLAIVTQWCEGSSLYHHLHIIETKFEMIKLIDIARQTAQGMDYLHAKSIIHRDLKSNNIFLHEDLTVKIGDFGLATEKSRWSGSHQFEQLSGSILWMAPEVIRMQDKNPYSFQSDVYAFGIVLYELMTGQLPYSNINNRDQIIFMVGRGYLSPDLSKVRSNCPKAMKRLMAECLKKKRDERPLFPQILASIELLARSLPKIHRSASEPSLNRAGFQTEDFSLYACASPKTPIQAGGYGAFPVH

Compound: C#Cc1cc(Nc2nccc(Oc3ccc(NC(=O)Nc4cc(C(C)(C)C)nn4-c4ccc(C)cc4)c4ccccc34)n2)cc(C(=O)NCCOCCOCCOC)c1 [Example 2, 3-((4-((4-(3-(3-(tert-Butyl)-1-(p-tolyl)-1H-pyrazol-5-yl)ureido)naphthalen-1-yl)oxy)pyrimidin-2-yl)amino)-5-ethynyl-N-(2-(2-(2-methoxyethoxy)ethoxy)ethyl)-benzamide]
- IC50 (CYP3A4; CYP3A4, 0 min preincubation): > 15 µM
- IC50 (CYP3A4; CYP3A4, 30 min preincubation): 7.7 µM
- inhibition at 0 min, 15 µM (CYP3A4; human, pooled human liver microsomes, pH 7.4, CYP3A4, 0 min preincubation, 15 μM, read-out: 15 μM % Inh): 2%
- inhibition at 30 min, 15 µM (CYP3A4; human, pooled human liver microsomes, pH 7.4, CYP3A4, 30 min preincubation, 15 μM, read-out: 15 μM % Inh): 52%
- microsomal CLint at 0.1 μM [1]: > 554 µL/min/mg
- % left ([2]; 0 min): 100%
- % left ([2]; 60° C., 300 min): 83%
- % left ([2]; 60° C., 1440 min): 39%
- % β-catenin induction (β-catenin; 1 μg/mL): 0%
- % β-catenin induction (β-catenin; 5 μg/mL): 2%
- % β-catenin induction (β-catenin; 10 μg/mL): 0%
- effect on the binding of B-Raf (V600e) to its standard ligand (B-Raf (V600e)): did not have any effect
- inhibition at 5 µg/mL (PBMCs): 18.7%
